This is an account of results in patent US4801613A, “Bradykinin antagonist peptides” (Nova Technology Limited Partnership, priority 1987, dated 1989).

What all share (type): cell-based
For one test, the system named is isolated rat uterus. The method, then:
(§1) The bradykinin antagonists were assayed on isolated rat uterus in natural or induced estrus and on guinea pig ileum, according to the commonly accepted assay methods for bradykinin and related kinins as described by Trautschold (Handbook of Expt. Pharmacol. Vol. 25, Springer Verlag, pp 53-55, 1970) for inhibition of the myotropic activity of bradykinin. The inhibition potencies, as determined according to the commonly accepted manner described by Schild for antagonists of biologically active compounds (Br. J. Pharmacol. 2:189, 1947), are determined on isolated rat uterus (RUT) and isolated guinea pig ileum (GPI). In the assays, a dose-response curve is determined for the reference substance bradykinin. The dose of bradykinin which produced a half maximal contraction of tissue is the ED50 dose. An amount of bradykinin equivalent to twice the ED50 dose is administered to the tissue 30 seconds after the start of incubation of the tissue with a dose of antagonist. Doses of antagonist are increased in this protocol until pre-incubation with a dose of antagonist reduces the contraction in response to the double ED50 dose of bradykinin to response of a single ED50 dose of bradykinin. The pA2 value represents the negative logarithm of the molar concentration of antagonist necessary to reduce the response of a double ED50 dose of bradykinin to that of an ED50 dose. One unit of pA2 value represents an order of magnitude change in potency. For comparison, the negative log of the dose of BK, the dose which causes half maximal contraction of the tissues, is commonly known as the pD2 value. The pD2 value for bradykinin is 7.9 on the rat uterus and 7.4 on the guinea pig ileum.

For another test, the system named is guinea pig ileum. On the procedure:
as §1
(§2) In each case, as shown, the BK-related antagonists inhibited contractions produced by BK-related agonists, but had no effect on the non-kinin myotropic peptide substances. The inhibition potencies are listed as pA2 values as described above.

In test [1] the test system is isolated guinea pig ileum. The method, then:
as §1, §2

[2] abbreviates: isolated rat uterus, vs double ED50 dose of bradykinin, Schild.
The mark [3] stands for this setting: isolated guinea pig ileum, vs double ED50 dose of bradykinin, Schild.

Where two headings read alike, the source gives them in different places. Non-standard residues stand in square brackets, D forms with d. Residues, ends and D or L forms follow the SMILES beside them. No end group written: not given here. Hyp = O=C(O)[C@@H]1C[C@@H](O)CN1; 2Thi = N[C@@H](Cc1cccs1)C(=O)O; d2Thi = N[C@H](Cc1cccs1)C(=O)O

Consider `N=C(N)NCCC[C@H](NC(=O)[C@H](Cc1ccccc1)NC(=O)[C@@H](Cc1ccccc1)NC(=O)[C@H](CO)NC(=O)[C@H](Cc1ccccc1)NC(=O)CNC(=O)[C@@H]1CCCN1C(=O)[C@@H]1CCCN1C(=O)[C@@H](N)CCCNC(=N)N)C(=O)O` [Example 1, Arg-Pro-Pro-Gly-Phe-Ser-DPhe-Phe-Arg] (H-RPPGFS[dF]FR-OH), for which the “RUT AG = agonist potency relative to BK = 100” value with isolated rat uterus is given as 1%. Further, in the test with guinea pig ileum, the “GUINEA PIG ILEUM KAL (pA2)” value is given as 5.6 and the “GUINEA PIG ILEUM MK--BK (pA2)” value was determined as 6.0. For the same compound, in test [1], the “GUINEA PIG ILEUM BK (pA2)” value came to 5.0.

Take `N=C(N)NCCC[C@H](NC(=O)[C@H](Cc1ccccc1)NC(=O)[C@@H](Cc1cccs1)NC(=O)[C@H](CO)NC(=O)[C@H](Cc1ccccc1)NC(=O)CNC(=O)[C@@H]1CCCN1C(=O)[C@@H]1CCCN1C(=O)[C@@H](N)CCCNC(=N)N)C(=O)O` [Example 2, Arg-Pro-Pro-Gly-Phe-Ser-DThi-Phe-Arg] (H-RPPGFS[d2Thi]FR-OH): in test [1], the pA2/GPI is given as 4.6.

In turn, `N=C(N)NCCC[C@H](NC(=O)[C@H](Cc1ccccc1)NC(=O)[C@@H](Cc1ccccc1)NC(=O)[C@@H](Cc1ccccc1)NC(=O)[C@H](Cc1ccccc1)NC(=O)CNC(=O)[C@@H]1CCCN1C(=O)[C@@H]1CCCN1C(=O)[C@@H](N)CCCNC(=N)N)C(=O)O` [Example 4, Arg-Pro-Pro-Gly-Phe-DPhe-DPhe-Phe-Arg] (H-RPPGF[dF][dF]FR-OH) gave a pA2/GPI in test [1] of 5.2.

For `N=C(N)NCCC[C@H](NC(=O)[C@H](Cc1cccs1)NC(=O)[C@@H](Cc1cccs1)NC(=O)[C@H](CO)NC(=O)[C@H](Cc1cccs1)NC(=O)CNC(=O)[C@@H]1CCCN1C(=O)[C@@H]1CCCN1C(=O)[C@@H](N)CCCNC(=N)N)C(=O)O` [Example 7, Arg-Pro-Pro-Gly-Thi-Ser-DThi-Thi-Arg] (H-RPPG[2Thi]S[d2Thi][2Thi]R-OH), in the test with isolated rat uterus, the pA2/RUT worked out at 4.2. The same compound returned a pA2/GPI in test [1] of 5.8.

In the case of `N=C(N)NCCC[C@@H](N)C(=O)N[C@@H](CCCNC(=N)N)C(=O)N1CCC[C@H]1C(=O)N1CCC[C@H]1C(=O)NCC(=O)N[C@@H](Cc1ccccc1)C(=O)N[C@@H](CO)C(=O)N[C@H](Cc1ccccc1)C(=O)N[C@@H](Cc1ccccc1)C(=O)N[C@@H](CCCNC(=N)N)C(=O)O` [Example 10, DArg-Arg-Pro-Pro-Gly-Phe-Ser-DPhe-Phe-Arg], the “RUT AG = agonist potency relative to BK = 100” value in the test on isolated rat uterus is 0.1%. The “GUINEA PIG ILEUM KAL (pA2)” value with guinea pig ileum (agonist kallidin (Lys-BK)) is recorded as 6.0. Moreover, the “GUINEA PIG ILEUM MK--BK (pA2)” value with guinea pig ileum (agonist methionyl-lysyl-BK) was found to be 6.3. Moreover, in test [1], the “GPI pA2” value is 5.0 and the “GUINEA PIG ILEUM BK (pA2)” value was determined as 5.6.

Turning to `N=C(N)NCCC[C@@H](N)C(=O)N[C@@H](CCCNC(=N)N)C(=O)N1CCC[C@H]1C(=O)N1CCC[C@@H]1C(=O)NCC(=O)N[C@@H](Cc1ccccc1)C(=O)N[C@@H](CO)C(=O)N[C@H](Cc1ccccc1)C(=O)N[C@@H](Cc1ccccc1)C(=O)N[C@@H](CCCNC(=N)N)C(=O)O` [Example 11, DArg-Arg-Pro-DPro-Gly-Phe-Ser-DPhe-Phe-Arg], in the test on isolated rat uterus, the “RUT pA2” value is 4.6 and the pA2/RUT is reported as 4.0.

Consider `N=C(N)NCCC[C@H](NC(=O)[C@H](Cc1ccccc1)NC(=O)[C@@H](Cc1ccccc1)NC(=O)[C@H](CO)NC(=O)[C@H](Cc1ccccc1)NC(=O)CNC(=O)[C@@H]1CCCN1C(=O)[C@@H]1CCCN1C(=O)[C@H](CCCNC(=N)N)NC(=O)[C@H](CCCCN)NC(=O)[C@@H](N)CCCCN)C(=O)O` [Example 13, Lys-Lys-Arg-Pro-Pro-Gly-Phe-Ser-DPhe-Phe-Arg] (H-KKRPPGFS[dF]FR-OH), for which, in test [1], the pA2/GPI was 5.1.

Consider `N=C(N)NCCC[C@H](NC(=O)[C@H](Cc1cccs1)NC(=O)[C@@H](Cc1ccccc1)NC(=O)[C@H](CO)NC(=O)[C@H](Cc1cccs1)NC(=O)CNC(=O)[C@@H]1CCCN1C(=O)[C@@H]1CCCN1C(=O)[C@H](CCCNC(=N)N)NC(=O)[C@H](CCCCN)NC(=O)[C@@H](N)CCCCN)C(=O)O` [Example 14, Lys-Lys-Arg-Pro-Pro-Gly-Thi-Ser-DPhe-Thi-Arg] (H-KKRPPG[2Thi]S[dF][2Thi]R-OH), for which, in the test with isolated rat uterus, the pA2/RUT worked out at 6.0. For the same compound, in test [1], the pA2/GPI turned out to be 5.3.

In the case of `N=C(N)NCCC[C@@H](N)C(=O)N[C@@H](CCCNC(=N)N)C(=O)N1CCC[C@H]1C(=O)N1CCC[C@@H]1C(=O)NCC(=O)N[C@@H](Cc1cccs1)C(=O)N[C@@H](CO)C(=O)N[C@H](Cc1ccccc1)C(=O)N[C@@H](Cc1cccs1)C(=O)N[C@@H](CCCNC(=N)N)C(=O)O` [Example 16, DArg-Arg-Pro-DPro-Gly-Thi-Ser-DPhe-Thi-Arg] (H-[dR]RP[dP]G[2Thi]S[dF][2Thi]R-OH), in the test on isolated rat uterus, the pA2/RUT was determined as 5.2.

With `N=C(N)NCCC[C@H](NC(=O)[C@H](Cc1cccs1)NC(=O)[C@@H](Cc1ccccc1)NC(=O)[C@H](CO)NC(=O)[C@H](Cc1cccs1)NC(=O)CNC(=O)[C@@H]1CCCN1C(=O)[C@@H]1C[C@@H](O)CN1C(=O)[C@@H](N)CCCNC(=N)N)C(=O)O` [Example 18, Arg-Hyp-Pro-Gly-Thi-Ser-DPhe-Thi-Arg] (H-R[Hyp]PG[2Thi]S[dF][2Thi]R-OH), the pA2/RUT with isolated rat uterus worked out at 5.6.

In the test on isolated rat uterus, `N=C(N)NCCC[C@H](NC(=O)[C@H](Cc1cccs1)NC(=O)[C@@H](Cc1ccccc1)NC(=O)[C@H](CO)NC(=O)[C@H](Cc1cccs1)NC(=O)CNC(=O)[C@@H]1C[C@@H](O)CN1C(=O)[C@@H]1CCCN1C(=O)[C@@H](N)CCCNC(=N)N)C(=O)O` [Example 20, Arg-Pro-Hyp-Gly-Thi-Ser-DPhe-Thi-Arg] (H-RP[Hyp]G[2Thi]S[dF][2Thi]R-OH) gave a pA2/RUT of 7.0. Moreover, in test [1], the pA2/GPI stood at 4.7.

The compound `N=C(N)NCCC[C@@H](N)C(=O)N[C@@H](CCCNC(=N)N)C(=O)N1CCC[C@H]1C(=O)N1C[C@H](O)C[C@H]1C(=O)NCC(=O)N[C@@H](Cc1cccs1)C(=O)N[C@@H](CO)C(=O)N[C@H](Cc1ccccc1)C(=O)N[C@@H](Cc1cccs1)C(=O)N[C@@H](CCCNC(=N)N)C(=O)O` [Example 21, DArg-Arg-Pro-Hyp-Gly-Thi-Ser-DPhe-Thi-Arg] (H-[dR]RP[Hyp]G[2Thi]S[dF][2Thi]R-OH) registered a pA2/RUT with isolated rat uterus of 7.2.

For the compound `N=C(N)NCCC[C@H](NC(=O)[C@H](Cc1cccs1)NC(=O)[C@@H](Cc1ccccc1)NC(=O)[C@H](CO)NC(=O)[C@H](Cc1cccs1)NC(=O)CNC(=O)[C@@H]1C[C@@H](O)CN1C(=O)[C@@H]1C[C@@H](O)CN1C(=O)[C@@H](N)CCCNC(=N)N)C(=O)O` [Example 22, Arg-Hyp-Hyp-Gly-Thi-Ser-DPhe-Thi-Arg] (H-R[Hyp][Hyp]G[2Thi]S[dF][2Thi]R-OH), the pA2/RUT in the test on isolated rat uterus came to 6.7.

With `N=C(N)NCCC[C@@H](N)C(=O)N[C@@H](CCCNC(=N)N)C(=O)N1C[C@H](O)C[C@H]1C(=O)N1CCC[C@H]1C(=O)NCC(=O)N[C@@H](Cc1cccs1)C(=O)N[C@@H](CO)C(=O)N[C@H](Cc1ccccc1)C(=O)N[C@@H](Cc1cccs1)C(=O)N[C@@H](CCCNC(=N)N)C(=O)O` [Example 64, DArg-Arg-Hyp-Pro-Gly-Thi-Ser-DPhe-Thi-Arg] (H-[dR]R[Hyp]PG[2Thi]S[dF][2Thi]R-OH), in the test on isolated rat uterus, the pA2/RUT is recorded as 5.7.

As for `N=C(N)NCCC[C@@H](N)C(=O)N[C@@H](CCCNC(=N)N)C(=O)N1C[C@H](O)C[C@H]1C(=O)N1C[C@H](O)C[C@H]1C(=O)NCC(=O)N[C@@H](Cc1cccs1)C(=O)N[C@@H](CO)C(=O)N[C@H](Cc1ccccc1)C(=O)N[C@@H](Cc1cccs1)C(=O)N[C@@H](CCCNC(=N)N)C(=O)O` [Example 65, DArg-Arg-Hyp-Hyp-Gly-Thi-Ser-DPhe-Thi-Arg] (H-[dR]R[Hyp][Hyp]G[2Thi]S[dF][2Thi]R-OH), the pA2/RUT in the test on isolated rat uterus is 7.1.

As to `N=C(N)NCCC[C@H](NC(=O)[C@H](Cc1ccccc1)NC(=O)[C@@H](Cc1ccccc1)NC(=O)[C@H](CO)NC(=O)[C@H](Cc1ccccc1)NC(=O)CNC(=O)[C@@H]1CCCN1C(=O)[C@@H]1C[C@@H](O)CN1C(=O)[C@H](CCCNC(=N)N)NC(=O)[C@H](CCCCN)NC(=O)[C@@H](N)CCCCN)C(=O)O` [Example 72, Lys-Lys-Arg-Hyp-Pro-Gly-Phe-Ser-DPhe-Phe-Arg] (H-KKR[Hyp]PGFS[dF]FR-OH), the pA2/RUT in the test on isolated rat uterus amounted to 5.6.

The compound `N=C(N)NCCC[C@H](NC(=O)[C@H](Cc1cccs1)NC(=O)[C@@H](Cc1ccccc1)NC(=O)[C@H](CO)NC(=O)[C@H](Cc1cccs1)NC(=O)CNC(=O)[C@@H]1C[C@@H](O)CN1C(=O)[C@@H]1CCCN1C(=O)[C@H](CCCNC(=N)N)NC(=O)[C@H](CCCCN)NC(=O)[C@@H](N)CCCCN)C(=O)O` [Example 77, Lys-Lys-Arg-Pro-Hyp-Gly-Thi-Ser-DPhe-Thi-Arg] (H-KKRP[Hyp]G[2Thi]S[dF][2Thi]R-OH) gave a pA2/RUT in the test with isolated rat uterus of 6.7.

In the test with isolated rat uterus (setting [2]), “Arg-Hyp-Hyp-Gly-Thi-DPhe-CDF-Thi-Arg [Example 23]” displayed a pA2/RUT of 6.5.

“Arg-Pro-Pro-Gly-Phe-DPhe-CDF-Phe-Arg [Example 5]”: the pA2/RUT with isolated rat uterus (setting [2]) came out at 4.9. The same compound showed a pA2/GPI in test [1] (setting [3]) of 5.8.

On to “Arg-Pro-Pro-Gly-Phe-Ser-DPal-Phe-Arg [Example 3]”, for which the pA2/RUT with isolated rat uterus (setting [2]) worked out at 5.0. This compound came in with a pA2/GPI in test [1] (setting [3]) of 4.8.

On to “Arg-Pro-Pro-Gly-Thi-Ser-DPal-Thi-Arg [Example 8]”, for which the pA2/RUT in the test with isolated rat uterus (setting [2]) is 4.2.

Take “KKR[Hyp]G[2Thi]S[dF][2Thi]R [Example 19]”: the pA2/RUT with isolated rat uterus (setting [2]) is 5.8.
